The values below come from patent US20260306644A1, “ANTIBODY RECRUITING MOLECULES FOR THE TREATMENT OF CORONAVIRUS DISEASE-19” (priority 2023, published 2026).

In test [1] the target is T1, SARS-CoV-2 Spike A (wild-type) (Severe acute respiratory syndrome coronavirus 2, UniProt P0DTC2).
T1 construct: purchased Meso Scale Diagnostics, LLC V-PLEX SARS-CoV-2 Panel 13 (ACE2) Kit / Panel 23 (ACE2) Kit
As to the kind of experiment: MSD ACE2 competition assay (inhibition of Spike binding with ACE2, ECL), A (wild-type).

In test [2] the target is SARS-CoV-2 Spike protein (Severe acute respiratory syndrome coronavirus 2, UniProt P0DTC2). The test is described as follows: Ternary binding of SARS-CoV-2 Spike protein (293T cells expressing Spike-GFP, IgG-AF647, flow cytometry). The format is cell-based. Particulars: 293T cells expressing Spike-GFP; IgG-AF647 10 μg/ml; repeat values/batches listed separately; read-out: SARS-CoV-2 Ternary binding EC50. Here is the method:
293T cells stably expressing SARS-CoV-2 Spike-GFP protein on their surface were incubated with a concentration range of compound for 30 minutes at 37° C.-5% CO2 in Roswell Park Memorial Institute Medium (RPMI)-5% low IgG serum with 10 μg/ml IgG-Alexa Fluor® 647 (AF647). The cells were washed twice using the same medium, resuspended in phosphate-buffered saline (PBS)-1% bovine serum albumin (BSA), and acquired on Attune™ NxT Flow Cytometer. In some embodiments, mean fluorescence intensity of AF647 as well as […] AF647 positive in GFP positive gate are reported as readouts in this assay.
(A flow cytometer gives signals particle by particle.)

The mark [3] stands for this setting: IC50 Wild Type, Wild Type Spike.
Setting [4] is: read-out: IC50 Wild Type, Wild Type Spike.

Where “and” joins values, the source holds several entries; their conditions need not be identical. Equal entries are not always repeated. Where two headings read alike, the source gives them in different places. Positions of bridges follow the written chain, without caps; N, C: chain ends. No end group written: not given here.

For the compound `CC[C@H](C)[C@H](NC(=O)[C@H](CC(C)C)NC(=O)[C@H](CC(=O)O)NC(=O)[C@H](CO)NC(=O)[C@@H](NC(=O)[C@H](CCCNC(=N)N)NC(=O)[C@H](CCSC)NC(=O)[C@H](CO)NC(=O)[C@H](C)NC(=O)[C@H](CCC(=O)O)NC(=O)[C@H](C)NC(=O)[C@H](Cc1c[nH]cn1)NC(=O)CNC(=O)[C@H](CC(C)C)NC(=O)[C@H](CCC(=O)O)NC(=O)[C@H](CC(=O)O)NC(=O)[C@H](CC(C)C)NC(=O)[C@H](CC(C)C)NC(=O)[C@H](CCCNC(=N)N)NC(=O)[C@H](CCSC)NC(=O)[C@@H](NC(=O)[C@H](CCC(=O)O)NC(=O)[C@H](Cc1ccc(O)cc1)NC(=O)[C@@H](NC(=O)[C@H](CCCCN)NC(=O)[C@H](CCC(N)=O)NC(=O)[C@H](CC(C)C)NC(=O)[C@@H](NC(=O)[C@H](Cc1c[nH]c2ccccc12)NC(=O)[C@H](CCC(=O)O)NC(=O)[C@H](CCCCN)NC(=O)[C@H](CC(=O)O)NC(C)=O)[C@@H](C)CC)[C@@H](C)CC)[C@@H](C)CC)C(C)C)C(=O)N[C@@H](Cc1ccc(O)cc1)C(=O)N[C@@H](CCC(=O)O)C(=O)N[C@@H](Cc1ccccc1)C(=O)N[C@@H](CCSC)C(=O)N[C@@H](CCCCN)C(=O)N[C@@H](CCCCN)C(=O)NCC(=O)NCC(=O)NCC(=O)NCC(=O)N[C@@H](CC(=O)O)C(=O)N[C@H]1CSSC[C@@H](C(=O)N[C@H](C(=O)O)[C@@H](C)O)NC(=O)[C@H](Cc2c[nH]c3ccccc23)NC(=O)[C@H](C(C)C)NC(=O)[C@H](CC(C)C)NC(=O)[C@H](CCC(=O)O)NC(=O)CNC(=O)[C@H](CC(C)C)NC(=O)[C@H](Cc2c[nH]cn2)NC(=O)[C@H](Cc2c[nH]c3ccccc23)NC(=O)[C@H](C)NC1=O` [Compound 107], the IC50 – broadly, the point on the concentration scale where inhibition reaches its midpoint – in test [1] (setting [3]) worked out at 36.2 nM. Moreover, the EC50 (as a rule, the midpoint of the concentration-response curve) in test [2] is 3.1 nM and 4.5 nM.

Turning to “Ac-DKEWILQKIYEIMRLLDELGHAEASMRVSDLIYEFMKKGGGGGGGGGDCAWHLGELVWCT (disulfide 49-59) [Compound 166]”, the IC50 in test [1] (setting [4]) was 16.6 nM. Also, the EC50 in test [2] turned out to be 0.23 nM.

As to “Ac-ILQKIYEIMRLCDELGHAEACMRVSDLIYEFMKKGDCAWHLGELVWCT-NH2 (disulfide 12-21, 37-47) [Compound 139]”, the IC50 in test [1] (setting [4]) is 315 nM and 514 nM and 259 nM. In addition, the EC50 in test [2] is 17 nM and 13 nM. On to `CC[C@H](C)[C@H](NC(C)=O)C(=O)N[C@@H](CC(C)C)C(=O)N[C@@H](CCC(N)=O)C(=O)N[C@@H](CCCCN)C(=O)N[C@H](C(=O)N[C@@H](Cc1ccc(O)cc1)C(=O)N[C@@H](CCC(=O)O)C(=O)N[C@H](C(=O)N[C@@H](CCSC)C(=O)N[C@@H](CCCNC(=N)N)C(=O)N[C@@H](CC(C)C)C(=O)N[C@@H](CC(C)C)C(=O)N[C@@H](CC(=O)O)C(=O)N[C@@H](CCC(=O)O)C(=O)N[C@@H](CC(C)C)C(=O)NCC(=O)N[C@@H](Cc1c[nH]cn1)C(=O)N[C@@H](C)C(=O)N[C@@H](CCC(=O)O)C(=O)N[C@@H](C)C(=O)N[C@@H](CO)C(=O)N[C@@H](CCSC)C(=O)N[C@@H](CCCNC(=N)N)C(=O)N[C@H](C(=O)N[C@@H](CO)C(=O)N[C@@H](CC(=O)O)C(=O)N[C@@H](CC(C)C)C(=O)N[C@H](C(=O)N[C@@H](Cc1ccc(O)cc1)C(=O)N[C@@H](CCC(=O)O)C(=O)N[C@@H](Cc1ccccc1)C(=O)N[C@@H](CCSC)C(=O)N[C@@H](CCCCN)C(=O)N[C@@H](CCCCN)C(=O)NCC(=O)N[C@@H](CC(=O)O)C(=O)N[C@H]1CSSC[C@@H](C(=O)N[C@H](C(=O)O)[C@@H](C)O)NC(=O)[C@H](Cc2c[nH]c3ccccc23)NC(=O)[C@H](C(C)C)NC(=O)[C@H](CC(C)C)NC(=O)[C@H](CCC(=O)O)NC(=O)CNC(=O)[C@H](CC(C)C)NC(=O)[C@H](Cc2c[nH]cn2)NC(=O)[C@H](Cc2c[nH]c3ccccc23)NC(=O)[C@H](C)NC1=O)[C@@H](C)CC)C(C)C)[C@@H](C)CC)[C@@H](C)CC` [Compound 116], for which, in test [1] (setting [3]), the IC50 was > 100 nM (2×) and 114 nM. Moreover, in test [2], the EC50 is 9.3 nM and 11 nM. `CC[C@H](C)[C@H](NC(=O)[C@H](Cc1c[nH]c2ccccc12)NC(=O)[C@H](CCC(=O)O)NC(=O)[C@H](CCCCN)NC(=O)[C@H](CC(=O)O)NC(C)=O)C(=O)N[C@@H](CC(C)C)C(=O)N[C@@H](CCC(N)=O)C(=O)N[C@@H](CCCCN)C(=O)N[C@H](C(=O)N[C@@H](Cc1ccc(O)cc1)C(=O)N[C@@H](CCC(=O)O)C(=O)N[C@H](C(=O)N[C@@H](CCSC)C(=O)N[C@@H](CCCNC(=N)N)C(=O)N[C@@H](CC(C)C)C(=O)N[C@@H](CC(C)C)C(=O)N[C@@H](CC(=O)O)C(=O)N[C@@H](CCC(=O)O)C(=O)N[C@@H](CC(C)C)C(=O)NCC(=O)NCCOCCOCCOCCOCCOCCOCCOCCOCCC(=O)NCCOCCOCCOCCOCCOCCOCCOCCOCCC(=O)N[C@@H](CC(=O)O)C(=O)N[C@H]1CSSC[C@@H](C(=O)N[C@H](C(N)=O)[C@@H](C)O)NC(=O)[C@H](Cc2c[nH]c3ccccc23)NC(=O)[C@H](C(C)C)NC(=O)[C@H](CC(C)C)NC(=O)[C@H](CCC(=O)O)NC(=O)CNC(=O)[C@H](CC(C)C)NC(=O)[C@H](Cc2c[nH]cn2)NC(=O)[C@H](Cc2c[nH]c3ccccc23)NC(=O)[C@H](C)NC1=O)[C@@H](C)CC)[C@@H](C)CC` [Compound 151]: in test [2], the EC50 is greater than 10 nM. The same measure, in the same setting: the same measure for `CC[C@H](C)[C@H](NC(=O)[C@H](CC(C)C)NC(=O)[C@H](CC(=O)O)NC(=O)[C@H](CO)NC(=O)[C@@H](NC(=O)[C@H](CCCNC(=N)N)NC(=O)[C@H](CCSC)NC(=O)[C@H](CO)NC(=O)[C@H](C)NC(=O)[C@H](CCC(=O)O)NC(=O)[C@H](C)NC(=O)[C@H](Cc1c[nH]cn1)NC(=O)CNC(=O)[C@H](CC(C)C)NC(=O)[C@H](CCC(=O)O)NC(=O)[C@H](CC(=O)O)NC(=O)[C@H](CC(C)C)NC(=O)[C@H](CC(C)C)NC(=O)[C@H](CCCNC(=N)N)NC(=O)[C@H](CCSC)NC(=O)[C@@H](NC(=O)[C@H](CCC(=O)O)NC(=O)[C@H](Cc1ccc(O)cc1)NC(=O)[C@@H](NC(=O)[C@H](CCCCN)NC(=O)[C@H](CCC(N)=O)NC(=O)[C@H](CC(C)C)NC(=O)[C@@H](NC(=O)[C@H](Cc1c[nH]c2ccccc12)NC(=O)[C@H](CCC(=O)O)NC(=O)[C@H](CCCCN)NC(=O)[C@H](CC(=O)O)NC(C)=O)[C@@H](C)CC)[C@@H](C)CC)[C@@H](C)CC)C(C)C)C(=O)N[C@@H](Cc1ccc(O)cc1)C(=O)N[C@@H](CCC(=O)O)C(=O)N[C@@H](Cc1ccccc1)C(=O)N[C@@H](CCSC)C(=O)N[C@@H](CCCCN)C(=O)N[C@@H](CCCCN)C(=O)NCC(=O)NCCOCCNC(=O)[C@@H]1CSCC(=O)N[C@@H](C)C(=O)N[C@@H](CO)C(=O)N[C@@H](Cc2ccc(O)cc2)C(=O)N[C@@H](Cc2c[nH]cn2)C(=O)N[C@@H](CC(C)C)C(=O)NCC(=O)N[C@@H](CCC(=O)O)C(=O)N[C@@H](CC(C)C)C(=O)N[C@@H](C(C)C)C(=O)N[C@@H](Cc2c[nH]c3ccccc23)C(=O)N2Cc3ccccc3C[C@H]2C(=O)NC(C)(C)C(=O)N1` [Compound 159]: 3 nM and 2.8 nM. Regarding `CC[C@H](C)[C@H](NC(=O)[C@H](Cc1c[nH]c2ccccc12)NC(=O)[C@H](CCC(=O)O)NC(=O)[C@H](CCCCN)NC(=O)[C@H](CC(=O)O)NC(C)=O)C(=O)N[C@@H](CC(C)C)C(=O)N[C@@H](CCC(N)=O)C(=O)N[C@@H](CCCCN)C(=O)N[C@H](C(=O)N[C@@H](Cc1ccc(O)cc1)C(=O)N[C@@H](CCC(=O)O)C(=O)N[C@H](C(=O)N[C@@H](CCSC)C(=O)N[C@@H](CCCNC(=N)N)C(=O)N[C@@H](CC(C)C)C(=O)N[C@@H](CC(C)C)C(=O)N[C@@H](CC(=O)O)C(=O)N[C@@H](CCC(=O)O)C(=O)N[C@@H](CC(C)C)C(=O)NCC(=O)N[C@@H](Cc1c[nH]cn1)C(=O)N[C@@H](C)C(=O)N[C@@H](CCC(=O)O)C(=O)N[C@@H](C)C(=O)N[C@@H](CO)C(=O)N[C@@H](CCSC)C(=O)N[C@@H](CCCNC(=N)N)C(=O)N[C@H](C(=O)N[C@@H](CO)C(=O)NCCOCCOCCOCCOCCOCCOCCOCCOCCC(=O)NCCOCCOCCOCCOCCOCCOCCOCCOCCC(=O)N[C@@H](CC(=O)O)C(=O)N[C@H]1CSSC[C@@H](C(=O)N[C@H](C(N)=O)[C@@H](C)O)NC(=O)[C@H](Cc2c[nH]c3ccccc23)NC(=O)[C@H](C(C)C)NC(=O)[C@H](CC(C)C)NC(=O)[C@H](CCC(=O)O)NC(=O)CNC(=O)[C@H](CC(C)C)NC(=O)[C@H](Cc2c[nH]cn2)NC(=O)[C@H](Cc2c[nH]c3ccccc23)NC(=O)[C@H](C)NC1=O)C(C)C)[C@@H](C)CC)[C@@H](C)CC` [Compound 153], the EC50 in test [2] is greater than 10 nM.
